Experiments:
TXK = molecular target: T1, TXK (Homo sapiens, UniProt P42681); assay: HotSpot kinase enzymatic assay, TXK; type: biochemical
T1 construct: purchased Reaction Biology Corporation
T1 sequence (P42681 1-527): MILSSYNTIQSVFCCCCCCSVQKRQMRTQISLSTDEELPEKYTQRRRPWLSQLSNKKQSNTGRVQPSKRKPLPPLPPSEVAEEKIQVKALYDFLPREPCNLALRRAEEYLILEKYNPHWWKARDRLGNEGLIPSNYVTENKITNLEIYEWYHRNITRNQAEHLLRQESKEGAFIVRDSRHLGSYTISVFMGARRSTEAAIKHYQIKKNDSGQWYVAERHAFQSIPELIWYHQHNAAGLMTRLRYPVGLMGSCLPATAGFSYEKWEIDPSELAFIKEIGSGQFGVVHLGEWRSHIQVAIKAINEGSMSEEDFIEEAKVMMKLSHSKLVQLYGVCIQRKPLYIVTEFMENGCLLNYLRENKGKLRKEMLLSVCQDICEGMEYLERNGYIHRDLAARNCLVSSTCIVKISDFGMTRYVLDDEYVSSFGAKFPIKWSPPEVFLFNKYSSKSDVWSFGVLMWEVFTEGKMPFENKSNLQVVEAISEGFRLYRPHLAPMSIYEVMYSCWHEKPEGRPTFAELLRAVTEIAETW
Description: (§1) Therefore, efforts have focused on developing new compounds with good selectivity profiles. […] Compound 8 was selective against BTK. The biochemical activities of compound 8 differed among TEC family kinases. […] The inhibitory potential of compound 8 differed between members of the EGFR family. […] The inhibitory activity of compound 8 against JAK3 was also low.
(§2) Kinase enzymatic assays for BTK, BMX, TXK, TEC, ITK, EGFR, ERBB2, ERBB4, and JAK3 were performed at Reaction Biology Corporation (www.reactionbiology.com, Malvern, PA, USA) using the HotSpot assay platform. Briefly, specific kinase/substrate pairs and the required cofactors were prepared in a reaction buffer comprising 20 mM HEPES (pH 7.5), 10 mM MgCl2, 1 mM EGTA, 0.02% Brij35, 0.02 mg/mL BSA, 0.1 mM Na3VO4, 2 mM DTT, and 1% DMSO. The compounds were added to the reaction mixture and allowed to incubate. Approximately 20 min later, a mixture of ATP (Sigma-Aldrich, St. Louis, MO, USA) and ^33P ATP (PerkinElmer, Waltham, MA, USA) was added to the reaction mixture at a final concentration of 10 μM. The reactions were performed at room temperature for 120 min; subsequently, the reactions were spotted onto P81 ion exchange filter papers (Whatman Inc., Maidstone, UK). Any unbound phosphate was removed by thoroughly washing the filter papers with 0.75% phosphoric acid. […]

BMX = molecular target: T2, BMX (Homo sapiens, UniProt P51813); assay: HotSpot kinase enzymatic assay, BMX; type: biochemical
T2 construct: purchased Reaction Biology Corporation
T2 sequence (P51813 1-675): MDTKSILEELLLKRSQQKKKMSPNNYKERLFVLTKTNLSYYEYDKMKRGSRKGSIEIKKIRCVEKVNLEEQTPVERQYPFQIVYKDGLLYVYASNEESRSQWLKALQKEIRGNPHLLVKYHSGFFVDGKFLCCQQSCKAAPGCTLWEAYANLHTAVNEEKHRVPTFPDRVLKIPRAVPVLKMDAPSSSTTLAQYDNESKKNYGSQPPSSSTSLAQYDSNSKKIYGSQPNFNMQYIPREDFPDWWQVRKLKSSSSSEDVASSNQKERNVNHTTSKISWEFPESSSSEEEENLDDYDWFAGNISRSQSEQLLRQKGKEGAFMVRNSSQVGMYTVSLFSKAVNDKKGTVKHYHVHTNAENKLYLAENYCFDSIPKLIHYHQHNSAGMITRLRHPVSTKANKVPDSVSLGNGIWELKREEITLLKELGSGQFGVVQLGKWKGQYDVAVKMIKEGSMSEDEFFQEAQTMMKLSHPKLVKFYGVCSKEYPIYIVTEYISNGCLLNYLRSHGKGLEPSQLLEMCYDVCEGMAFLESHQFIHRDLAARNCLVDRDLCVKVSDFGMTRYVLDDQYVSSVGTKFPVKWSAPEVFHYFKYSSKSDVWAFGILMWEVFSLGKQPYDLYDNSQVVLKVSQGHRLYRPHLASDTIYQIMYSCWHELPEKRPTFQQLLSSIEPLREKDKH
Description: as §1, §2

Structure (SMILES): C=CC(=O)O[C@H]1Cc2cc3ccc(=O)oc3cc2OC1(C)C [Compound 8, (7S)-(+)-Acrylic acid, 8,8-dimethyl-2-oxo-6,7-dihydro-2H,8H-pyrano [3,2-g]chromen-7-yl ester]
- inhibitory activity against TXK (in words) (TXK): strong inhibitory activity
- inhibition at 10 µM (TXK; 10 µM, mean of two experiments): 88.5%
- inhibitory activity against BMX (in words) (BMX): strong inhibitory activity
- inhibition at 10 µM (BMX; 10 µM, mean of two experiments): 95.4%
